The IC50 is the midpoint of a concentration-inhibition curve.

Data on 13 compounds can be found in ChEMBL document CHEMBL4627322, “Design and synthesis of a novel class EGFR/HER2 dual inhibitors containing tricyclic oxazine fused quinazolines scaffold” (Bioorg Med Chem Lett, 2020).

One test relates to A-431. The experiment in a line: cells. It counts as functional, cell-based. To be noted: Homo sapiens, A-431, 72 h.
Description: Antiproliferative activity against human A431 cells overexpressing EGFR assessed as cell growth inhibition measured after 72 hrs by MTT assay
In the case of `CN(C)C/C=C/C(=O)N1CCOc2cc3ncnc(Nc4ccc(OCc5cccc(F)c5)c(Cl)c4)c3cc21`, 258 nM corresponded to half-maximal inhibition (IC50).

The compound `CC1CCN(C/C=C/C(=O)N2CCCOc3cc4ncnc(Nc5ccc(OCc6cccc(F)c6)c(Cl)c5)c4cc32)CC1` displayed a half-inhibitory concentration (IC50) of 2090 nM.

In the case of `CN1CCN(C/C=C/C(=O)N2CCCOc3cc4ncnc(Nc5ccc(OCc6cccc(F)c6)c(Cl)c5)c4cc32)CC1`, inhibition was half-maximal at 8500 nM (IC50).

In the case of `O=C(/C=C/CN1CCCCC1)N1CCOc2cc3ncnc(Nc4ccc(OCc5cccc(F)c5)c(Cl)c4)c3cc21`, inhibition was half-maximal at 788 nM (IC50).

Take `CC1CCN(C/C=C/C(=O)N2CCOc3cc4ncnc(Nc5ccc(OCc6cccc(F)c6)c(Cl)c5)c4cc32)CC1`: the IC50 worked out at 1120 nM.

Take `CC1CCCCN1C/C=C/C(=O)N1CCCOc2cc3ncnc(Nc4ccc(OCc5cccc(F)c5)c(Cl)c4)c3cc21` (configuration not stated): the concentration for half-maximal inhibition (IC50) is more than 10000 nM.

Regarding `CN(C)C/C=C/C(=O)N1CCCOc2cc3ncnc(Nc4ccc(OCc5cccc(F)c5)c(Cl)c4)c3cc21`, inhibition was half-maximal at 2400 nM (IC50).

As to `O=C(/C=C/CN1CCOCC1)N1CCCOc2cc3ncnc(Nc4ccc(OCc5cccc(F)c5)c(Cl)c4)c3cc21`, the concentration for half-maximal inhibition (IC50) was more than 10000 nM.

Regarding `O=C(/C=C/Cn1ccnc1)N1CCOc2cc3ncnc(Nc4ccc(OCc5cccc(F)c5)c(Cl)c4)c3cc21`, the midpoint of inhibition, the IC50, lay at 2490 nM.

`O=C(/C=C/CN1CCCC1)N1CCCOc2cc3ncnc(Nc4ccc(OCc5cccc(F)c5)c(Cl)c4)c3cc21` showed an IC50 of 791 nM.

As for `CS(=O)(=O)CCNCc1ccc(-c2ccc3ncnc(Nc4ccc(OCc5cccc(F)c5)c(Cl)c4)c3c2)o1` [LAPATINIB], the IC50 worked out at 3590 nM.

Take `CC1CCCCN1C/C=C/C(=O)N1CCOc2cc3ncnc(Nc4ccc(OCc5cccc(F)c5)c(Cl)c4)c3cc21` (configuration not stated): the IC50 turned out to be 448 nM.

The subject of another test is Calu-3. The experiment in a line: cells. It counts as functional, cell-based. To be noted: Homo sapiens, Calu-3, 72 h.
Description: Antiproliferative activity against human Calu3 cells overexpressing HER2 assessed as cell growth inhibition measured after 72 hrs by MTT assay
`CC1CCN(C/C=C/C(=O)N2CCCOc3cc4ncnc(Nc5ccc(OCc6cccc(F)c6)c(Cl)c5)c4cc32)CC1`: the 50% inhibitory concentration (IC50) is more than 10000 nM.

On to `CN1CCN(C/C=C/C(=O)N2CCCOc3cc4ncnc(Nc5ccc(OCc6cccc(F)c6)c(Cl)c5)c4cc32)CC1`, for which the IC50 was more than 10000 nM.

Compound `CC1CCCCN1C/C=C/C(=O)N1CCCOc2cc3ncnc(Nc4ccc(OCc5cccc(F)c5)c(Cl)c4)c3cc21` (configuration not stated) had an IC50 of more than 10000 nM.

`CN(C)C/C=C/C(=O)N1CCCOc2cc3ncnc(Nc4ccc(OCc5cccc(F)c5)c(Cl)c4)c3cc21` returned an IC50 of more than 10000 nM.

Regarding `O=C(/C=C/CN1CCOCC1)N1CCCOc2cc3ncnc(Nc4ccc(OCc5cccc(F)c5)c(Cl)c4)c3cc21`, the 50% inhibitory concentration (IC50) is more than 10000 nM.

In turn, `O=C(/C=C/CN1CCCC1)N1CCCOc2cc3ncnc(Nc4ccc(OCc5cccc(F)c5)c(Cl)c4)c3cc21` had an IC50 of more than 10000 nM.

`CS(=O)(=O)CCNCc1ccc(-c2ccc3ncnc(Nc4ccc(OCc5cccc(F)c5)c(Cl)c4)c3c2)o1` [LAPATINIB]: inhibition was half-maximal at 216 nM (IC50).

The next test relates to NCI-H1975. The experiment in a line: cells. Type of test: functional, cell-based. To be noted: Homo sapiens, NCI-H1975, 72 h.
Description: Antiproliferative activity against human NCI-H1975 cells harboring EGFR L858R/T790M mutant assessed as cell growth inhibition measured after 72 hrs by MTT assay
Compound `CN(C)C/C=C/C(=O)N1CCOc2cc3ncnc(Nc4ccc(OCc5cccc(F)c5)c(Cl)c4)c3cc21` gave an IC50 of 2540 nM.

In the case of `CC1CCN(C/C=C/C(=O)N2CCCOc3cc4ncnc(Nc5ccc(OCc6cccc(F)c6)c(Cl)c5)c4cc32)CC1`, the IC50 was more than 10000 nM.

In the case of `CN1CCN(C/C=C/C(=O)N2CCCOc3cc4ncnc(Nc5ccc(OCc6cccc(F)c6)c(Cl)c5)c4cc32)CC1`, the IC50 was more than 10000 nM.

`O=C(/C=C/CN1CCCCC1)N1CCOc2cc3ncnc(Nc4ccc(OCc5cccc(F)c5)c(Cl)c4)c3cc21` showed an IC50 of 1780 nM.

Compound `CC1CCN(C/C=C/C(=O)N2CCOc3cc4ncnc(Nc5ccc(OCc6cccc(F)c6)c(Cl)c5)c4cc32)CC1` had a half-inhibitory concentration (IC50) of 1220 nM.

As for `CC1CCCCN1C/C=C/C(=O)N1CCCOc2cc3ncnc(Nc4ccc(OCc5cccc(F)c5)c(Cl)c4)c3cc21` (configuration not stated), the 50% inhibitory concentration (IC50) is more than 10000 nM.

On to `CN(C)C/C=C/C(=O)N1CCCOc2cc3ncnc(Nc4ccc(OCc5cccc(F)c5)c(Cl)c4)c3cc21`, for which the IC50 is more than 10000 nM.

`O=C(/C=C/CN1CCOCC1)N1CCCOc2cc3ncnc(Nc4ccc(OCc5cccc(F)c5)c(Cl)c4)c3cc21` had an IC50 of more than 10000 nM.

For the compound `O=C(/C=C/Cn1ccnc1)N1CCOc2cc3ncnc(Nc4ccc(OCc5cccc(F)c5)c(Cl)c4)c3cc21`, the half-inhibitory concentration (IC50) worked out at 2000 nM.

For the compound `O=C(/C=C/CN1CCCC1)N1CCCOc2cc3ncnc(Nc4ccc(OCc5cccc(F)c5)c(Cl)c4)c3cc21`, the IC50 is more than 10000 nM.

`CS(=O)(=O)CCNCc1ccc(-c2ccc3ncnc(Nc4ccc(OCc5cccc(F)c5)c(Cl)c4)c3c2)o1` [LAPATINIB] returned a half-maximal inhibitory concentration (IC50) of 7370 nM.

With `CC1CCCCN1C/C=C/C(=O)N1CCOc2cc3ncnc(Nc4ccc(OCc5cccc(F)c5)c(Cl)c4)c3cc21` (configuration not stated), the half-maximal inhibitory concentration (IC50) stood at 2310 nM.

In the next test the test system is NCI-N87. The experiment in a line: cells. Type of test: functional, cell-based. The following applies: Homo sapiens, NCI-N87, 72 h.
Description: Antiproliferative activity against human NCI-N87 cells overexpressing HER2 assessed as cell growth inhibition measured after 72 hrs by MTT assay
Compound `CN(C)C/C=C/C(=O)N1CCOc2cc3ncnc(Nc4ccc(OCc5cccc(F)c5)c(Cl)c4)c3cc21` showed an IC50 of 12 nM.

With `CC1CCN(C/C=C/C(=O)N2CCCOc3cc4ncnc(Nc5ccc(OCc6cccc(F)c6)c(Cl)c5)c4cc32)CC1`, the IC50 turned out to be 838 nM.

Compound `CN1CCN(C/C=C/C(=O)N2CCCOc3cc4ncnc(Nc5ccc(OCc6cccc(F)c6)c(Cl)c5)c4cc32)CC1` gave an IC50 of 1840 nM.

Turning to `O=C(/C=C/CN1CCCCC1)N1CCOc2cc3ncnc(Nc4ccc(OCc5cccc(F)c5)c(Cl)c4)c3cc21`, the IC50 came to 73 nM.

In turn, `CC1CCN(C/C=C/C(=O)N2CCOc3cc4ncnc(Nc5ccc(OCc6cccc(F)c6)c(Cl)c5)c4cc32)CC1` returned an IC50 of 166 nM.

With `CC1CCCCN1C/C=C/C(=O)N1CCCOc2cc3ncnc(Nc4ccc(OCc5cccc(F)c5)c(Cl)c4)c3cc21` (configuration not stated), half-maximal inhibition (IC50) was put at 502 nM.

Consider `CN(C)C/C=C/C(=O)N1CCCOc2cc3ncnc(Nc4ccc(OCc5cccc(F)c5)c(Cl)c4)c3cc21`, for which the half-maximal inhibitory concentration (IC50) was 74 nM.

Turning to `O=C(/C=C/CN1CCOCC1)N1CCCOc2cc3ncnc(Nc4ccc(OCc5cccc(F)c5)c(Cl)c4)c3cc21`, the IC50 was more than 10000 nM.

On to `O=C(/C=C/Cn1ccnc1)N1CCOc2cc3ncnc(Nc4ccc(OCc5cccc(F)c5)c(Cl)c4)c3cc21`, for which it took 23 nM to reach half-maximal inhibition (IC50).

Regarding `O=C(/C=C/CN1CCCC1)N1CCCOc2cc3ncnc(Nc4ccc(OCc5cccc(F)c5)c(Cl)c4)c3cc21`, the half-maximal inhibitory concentration (IC50) was determined as 109 nM.

On to `C#Cc1cccc(Nc2ncnc3cc(OCCOC)c(OCCOC)cc23)c1` [ERLOTINIB], for which the IC50 is more than 10000 nM.

The compound `CS(=O)(=O)CCNCc1ccc(-c2ccc3ncnc(Nc4ccc(OCc5cccc(F)c5)c(Cl)c4)c3c2)o1` [LAPATINIB] returned a concentration for half-maximal inhibition (IC50) of 53 nM.

Take `CC1CCCCN1C/C=C/C(=O)N1CCOc2cc3ncnc(Nc4ccc(OCc5cccc(F)c5)c(Cl)c4)c3cc21` (configuration not stated): the IC50 was 102 nM.

Another test deals with Epidermal growth factor receptor (Homo sapiens, UniProt P00533).
Sequence of Epidermal growth factor receptor (P00533 whole entry): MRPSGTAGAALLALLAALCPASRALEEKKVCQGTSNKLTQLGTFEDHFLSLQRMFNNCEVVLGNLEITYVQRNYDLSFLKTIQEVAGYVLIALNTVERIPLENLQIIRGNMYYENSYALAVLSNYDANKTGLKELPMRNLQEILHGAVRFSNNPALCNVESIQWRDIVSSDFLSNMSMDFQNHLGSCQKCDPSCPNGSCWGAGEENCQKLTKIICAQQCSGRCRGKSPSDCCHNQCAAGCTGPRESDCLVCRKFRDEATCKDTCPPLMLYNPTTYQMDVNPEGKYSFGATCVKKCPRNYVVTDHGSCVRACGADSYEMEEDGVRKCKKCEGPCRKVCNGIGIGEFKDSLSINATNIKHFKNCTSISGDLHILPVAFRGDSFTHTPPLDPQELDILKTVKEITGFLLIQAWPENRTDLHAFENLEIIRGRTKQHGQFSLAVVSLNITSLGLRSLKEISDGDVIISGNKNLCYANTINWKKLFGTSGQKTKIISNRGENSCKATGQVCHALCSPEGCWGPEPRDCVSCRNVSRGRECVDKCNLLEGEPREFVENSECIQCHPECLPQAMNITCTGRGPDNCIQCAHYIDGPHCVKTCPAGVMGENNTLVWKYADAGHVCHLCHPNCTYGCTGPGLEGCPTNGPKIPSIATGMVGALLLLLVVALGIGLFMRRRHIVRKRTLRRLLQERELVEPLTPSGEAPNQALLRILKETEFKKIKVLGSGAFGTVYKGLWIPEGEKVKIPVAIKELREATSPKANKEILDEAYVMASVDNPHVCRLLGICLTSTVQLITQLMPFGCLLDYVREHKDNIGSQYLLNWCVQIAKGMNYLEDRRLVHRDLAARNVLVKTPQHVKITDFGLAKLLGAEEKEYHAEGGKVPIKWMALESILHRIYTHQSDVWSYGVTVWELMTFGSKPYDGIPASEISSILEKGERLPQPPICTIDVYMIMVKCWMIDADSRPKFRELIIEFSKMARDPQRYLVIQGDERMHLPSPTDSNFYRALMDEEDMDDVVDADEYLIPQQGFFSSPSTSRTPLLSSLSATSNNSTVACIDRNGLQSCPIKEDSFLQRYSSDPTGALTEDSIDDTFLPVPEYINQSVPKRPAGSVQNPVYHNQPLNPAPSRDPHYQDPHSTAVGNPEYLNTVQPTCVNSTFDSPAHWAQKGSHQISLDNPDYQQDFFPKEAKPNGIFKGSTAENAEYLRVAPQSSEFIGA
Assay: not given
Type of test: cell-based, KB.
Details: not given
`CN(C)C/C=C/C(=O)N1CCOc2cc3ncnc(Nc4ccc(OCc5cccc(F)c5)c(Cl)c4)c3cc21` came in with a half-maximal inhibitory concentration (IC50) of 126 nM.

On to `CC1CCN(C/C=C/C(=O)N2CCCOc3cc4ncnc(Nc5ccc(OCc6cccc(F)c6)c(Cl)c5)c4cc32)CC1`, for which half-maximal inhibition (IC50) was put at 4870 nM.

The compound `CN1CCN(C/C=C/C(=O)N2CCCOc3cc4ncnc(Nc5ccc(OCc6cccc(F)c6)c(Cl)c5)c4cc32)CC1` displayed a 50% inhibitory concentration (IC50) of 4870 nM.

`O=C(/C=C/CN1CCCCC1)N1CCOc2cc3ncnc(Nc4ccc(OCc5cccc(F)c5)c(Cl)c4)c3cc21` returned an IC50 of 116 nM.

`CC1CCCCN1C/C=C/C(=O)N1CCCOc2cc3ncnc(Nc4ccc(OCc5cccc(F)c5)c(Cl)c4)c3cc21` (configuration not stated) came in with a half-maximal inhibitory concentration (IC50) of 5830 nM.

Compound `CN(C)C/C=C/C(=O)N1CCCOc2cc3ncnc(Nc4ccc(OCc5cccc(F)c5)c(Cl)c4)c3cc21` registered a concentration for half-maximal inhibition (IC50) of 446 nM.

Consider `O=C(/C=C/CN1CCOCC1)N1CCCOc2cc3ncnc(Nc4ccc(OCc5cccc(F)c5)c(Cl)c4)c3cc21`, for which the 50% inhibitory concentration (IC50) was more than 10000 nM.

For `O=C(/C=C/Cn1ccnc1)N1CCOc2cc3ncnc(Nc4ccc(OCc5cccc(F)c5)c(Cl)c4)c3cc21`, half-maximal inhibition (IC50) was put at 120 nM.

`O=C(/C=C/CN1CCCC1)N1CCCOc2cc3ncnc(Nc4ccc(OCc5cccc(F)c5)c(Cl)c4)c3cc21` returned an IC50 of 578 nM.

The compound `CC1CCCCN1C/C=C/C(=O)N1CCOc2cc3ncnc(Nc4ccc(OCc5cccc(F)c5)c(Cl)c4)c3cc21` (configuration not stated) came in with an IC50 of 179 nM.

Another test relates to BT-474. The experiment in a line: cells. It counts as functional, cell-based. The following applies: Homo sapiens, BT-474, 72 h.
Description: Antiproliferative activity against human BT474 cells overexpressing HER2 assessed as cell growth inhibition measured after 72 hrs by MTT assay
On to `CN(C)C/C=C/C(=O)N1CCOc2cc3ncnc(Nc4ccc(OCc5cccc(F)c5)c(Cl)c4)c3cc21`, for which the IC50 worked out at 21 nM.

In turn, `CC1CCN(C/C=C/C(=O)N2CCCOc3cc4ncnc(Nc5ccc(OCc6cccc(F)c6)c(Cl)c5)c4cc32)CC1` had a half-inhibitory concentration (IC50) of 990 nM.

`CN1CCN(C/C=C/C(=O)N2CCCOc3cc4ncnc(Nc5ccc(OCc6cccc(F)c6)c(Cl)c5)c4cc32)CC1` had an IC50 of 1700 nM.

In turn, `O=C(/C=C/CN1CCCCC1)N1CCOc2cc3ncnc(Nc4ccc(OCc5cccc(F)c5)c(Cl)c4)c3cc21` had an IC50 of 118 nM.

Compound `CC1CCN(C/C=C/C(=O)N2CCOc3cc4ncnc(Nc5ccc(OCc6cccc(F)c6)c(Cl)c5)c4cc32)CC1` came in with an IC50 of 200 nM.

Compound `CC1CCCCN1C/C=C/C(=O)N1CCCOc2cc3ncnc(Nc4ccc(OCc5cccc(F)c5)c(Cl)c4)c3cc21` (configuration not stated) gave a 50% inhibitory concentration (IC50) of 1010 nM.

As to `CN(C)C/C=C/C(=O)N1CCCOc2cc3ncnc(Nc4ccc(OCc5cccc(F)c5)c(Cl)c4)c3cc21`, the half-inhibitory concentration (IC50) amounted to 127 nM.

Compound `O=C(/C=C/CN1CCOCC1)N1CCCOc2cc3ncnc(Nc4ccc(OCc5cccc(F)c5)c(Cl)c4)c3cc21` displayed an IC50 of more than 10000 nM.

For `O=C(/C=C/Cn1ccnc1)N1CCOc2cc3ncnc(Nc4ccc(OCc5cccc(F)c5)c(Cl)c4)c3cc21`, 48 nM corresponded to half-maximal inhibition (IC50).

Compound `O=C(/C=C/CN1CCCC1)N1CCCOc2cc3ncnc(Nc4ccc(OCc5cccc(F)c5)c(Cl)c4)c3cc21` had an IC50 of 172 nM.

`C#Cc1cccc(Nc2ncnc3cc(OCCOC)c(OCCOC)cc23)c1` [ERLOTINIB] showed an IC50 of more than 10000 nM.

For `CS(=O)(=O)CCNCc1ccc(-c2ccc3ncnc(Nc4ccc(OCc5cccc(F)c5)c(Cl)c4)c3c2)o1` [LAPATINIB], the IC50 worked out at 37 nM.

With `CC1CCCCN1C/C=C/C(=O)N1CCOc2cc3ncnc(Nc4ccc(OCc5cccc(F)c5)c(Cl)c4)c3cc21` (configuration not stated), the IC50 was 127 nM.
